These results are taken from ChEMBL document CHEMBL1154424, “Effect of delayed pulsed-wave ultrasound on local pharmacokinetics and pharmacodynamics of vancomycin-loaded acrylic bone cement in vivo” (Antimicrob Agents Chemother, 2007).

≈ marks a conversion by molar mass, not a printed value.

Data set [1] deals with Oryctolagus cuniculus. Description: Effect on local hemorrhage in Staphylococcus aureus ATCC 13565 infected New Zealand white rabbit hip assessed as total volume of drainage fluid at 3 g administered drug-loaded acrylic bone cement implanted in hips treated with 300 mW/cm2 normal ultrasound for 12 to 24 hrs after surgery. It counts as ADME, organism-based. Conditions: in vivo, other.

In data set [2] the test system is Staphylococcus aureus. Description: T>MIC in Staphylococcus aureus ATCC 13565 infected New Zealand white rabbit at 3 g administered drug-loaded acrylic bone cement implanted in hips exposed to 300 mW/cm2 delayed ultrasound for 12 to 24 hrs. It counts as ADME, organism-based. To be noted: in vivo, other.
In data set [3] the test system is Oryctolagus cuniculus. Description: Effect on local hemorrhage in Staphylococcus aureus ATCC 13565 infected New Zealand white rabbit hip assessed as total volume of drainage fluid at 3 g administered drug-loaded acrylic bone cement implanted in hips treated with 300 mW/cm2 normal ultrasound for 0 to 12 hrs after surgery. It counts as ADME, organism-based. Conditions: in vivo, other.

Data set [4] deals with Staphylococcus aureus. Description: Antimicrobial activity against Staphylococcus aureus ATCC 13565 infected in New Zealand white rabbit assessed as reduction of bacterial count in hip aspirates at 3 g administered drug-loaded in acrylic bone cement implanted in hips treated with 300 mW/cm2 normal ultrasound for 12 to 24 hrs after surgery. It counts as functional.
Data set [5] has as its system Staphylococcus aureus. Description: T>MIC in Staphylococcus aureus ATCC 13565 infected New Zealand white rabbit at 3 g administered drug-loaded acrylic bone cement implanted in hips after 48 hrs surgery without ultrasound. It is filed as ADME, organism-based. Conditions: in vivo, other.
Data set [6] concerns Staphylococcus aureus. Description: Antimicrobial activity against Staphylococcus aureus ATCC 13565 infected in New Zealand white rabbit assessed as reduction of bacterial count per gram of femoral tissue at 3 g administered drug-loaded in acrylic bone cement implanted in hips treated with 300 mW/cm2 normal ultrasound for 0 to 12 hrs after surgery. It is filed as functional.

Data set [7] relates to Staphylococcus aureus. Description: Antimicrobial activity against Staphylococcus aureus ATCC 13565 infected in New Zealand white rabbit assessed as reduction of bacterial count per gram of femoral tissue at 3 g administered drug-loaded in acrylic bone cement implanted in hips treated with 300 mW/cm2 normal ultrasound for 12 to 24 hrs after surgery. It counts as functional.

For data set [8], the system named is Staphylococcus aureus. Description: Antimicrobial activity against Staphylococcus aureus ATCC 13565 infected in New Zealand white rabbit assessed as reduction of bacterial count in hip aspirates at 3 g administered drug-loaded in acrylic bone cement implanted in hips treated with 300 mW/cm2 normal ultrasound for 0 to 12 hrs after surgery. It counts as functional.

The subject of data set [9] is Staphylococcus aureus. Description: microbe, parasite or virus in culture. To be noted: ATCC 13565.
Description: Antibacterial activity against Staphylococcus aureus ATCC 13565 by tube dilution method
The subject of data set [10] is Staphylococcus aureus. Description: T>MIC in Staphylococcus aureus ATCC 13565 infected New Zealand white rabbit at 3 g administered drug-loaded acrylic bone cement implanted in hips at 3 g exposed to 300 mW/cm2 delayed ultrasound for 0 to 12 hrs. It is filed as ADME, organism-based. Conditions: in vivo, other.

Take `CN[C@H](CC(C)C)C(=O)N[C@H]1C(=O)N[C@@H](CC(N)=O)C(=O)N[C@H]2C(=O)N[C@H]3C(=O)N[C@H](C(=O)N[C@H](C(=O)O)c4cc(O)cc(O)c4-c4cc3ccc4O)[C@H](O)c3ccc(c(Cl)c3)Oc3cc2cc(c3O[C@@H]2O[C@H](CO)[C@@H](O)[C@H](O)[C@H]2O[C@H]2C[C@](C)(N)[C@H](O)[C@H](C)O2)Oc2ccc(cc2Cl)[C@H]1O` [VANCOMYCIN]: the Activity worked out at 1.32 mL with Oryctolagus cuniculus [1] and 4.65 mL with Oryctolagus cuniculus [3]. The “T>MIC” value in the data set on Staphylococcus aureus [2] was found to be 35.4 h; with Staphylococcus aureus [5], 14.89 h; in the data set on Staphylococcus aureus [10], 13.59 h. Besides, the log10CFU/ml in the data set with Staphylococcus aureus [4] stood at 2.77; in the data set with Staphylococcus aureus [8], 1.62. In addition, the log10cfu came to 0.53 with Staphylococcus aureus [6] and 1.29 with Staphylococcus aureus [7]. Besides, in the data set with Staphylococcus aureus [9], the MBC worked out at 3 µg/mL (≈ 2.07 µM).
